In patent US7090995B2, “Molecules and methods using same for measuring non-transferrin bound iron” (Yissum Research Development Company of the Hebrew …, priority 2000, dated 2006):
Values belong to the compound of their own block, whether it stands above or below them.

Columns and labels:
[1] = Iron binding (quenching of fluorescence) by fluorescein-transferrin preparations with and without oxalate and gallium; details: 0.6 μM indicator, 10 mM oxalate and gallium, FIGS. 8A-B
Description: FIGS. 8A–B graphically depict the ability of two particular preparations of iron-free-transferrin, essentially Fl-TF (FIG. 8A) and Fl-aTF (FIG. 8B), to detect free iron in the presence and absence of oxalate and Gallium [Ga(III)]. 0.6 μM of each of the indicator molecules were tested under three experimental conditions: with no addition (squares), with 10 mM Na-oxalate (circles) and with 10 mM Na-oxalate and 0.1 mM GaCl3 (triangles), Quenching of fluorescence as a function of iron concentration was measured and presented as % Original Fluorescence.
Preparation of fluorescein-conjugated apo-Transferrin (Fl-aTF) and iron depleted Transferrin (FL-TF)—100 μM 5-(4,6-dichlorotriazinyl) aminofluorescein (DCTAF, Molecular Probes, Eugene, Oreg.) from a freshly prepared 10 mM solution in dimethylsulfoxide was added to a solution containing 8 mg/ml apo-Transferrin (Kamada, Kibbutz Kama, Israel) (100 μM, based on a, MW of 80 kD) in 100 mM NaHCO3, pH 8.4. Following a 30 minute incubation at 37° C. in the dark, 5 mM L-lysine was added from a solution containing 0.5 M L-lysine, pH 8, in order to terminate the coupling reaction. The product Fl-aTF was extensively dialyzed against HBS, divided into aliquots and stored frozen at −20° C. The final preparation yielded a single fluorescent band of approximately 80 kD in polyacrylamide electrophoresis determinations. The fluoroscein concentration in Fl-aTF was determined to be 84 μM by measuring absorbance at 496 nm, using DCTAF as standard solution, giving a ratio of aTf: fluoroscein of 1:0.84.
FL-TF was prepared in an identical manner as FL-aTF, with the difference that iron-saturated human transferrin (from Kamada, Kibbutz Kama, Israel) was used instead of iron-free transferrin for reaction with DCTAF. The FL-TF was rendered iron-free by exhaustive dialysis against 37.5 mM Na-Citrate, pH 5.0, and then the citrate was removed from the preparation by exhaustive dialysis against HBS. […]

[2] = DCI in serum/plasma of Thalassemia patients undergoing oral L1-chelation therapy; type: in vivo, human; details: Thalassemia patients (Thailand, Israel), therapeutic oral doses of L1, minutes to hours after administration; FIGS. 6A-B
Source text: FIG. 5 is a schematic illustration of another embodiment of the method of the present invention directed at detecting iron mobilized from tissues into plasma by chelators such as L1 (also called deferriprone). In the example depicted, a serum sample was taken from a patient following L1 oral administration. The iron mobilized in vivo into the plasma by L1 is transferred to Fl-DFO in vitro, whereupon Fl-DFO's fluorescence is quenched commensurately with the amount of iron transferred. The basic assay is as depicted in FIG. 2. FIGS. 6A–B are graphs depicting the DCI levels in plasma of thalassemic patients (3 from Israel and 3 from Thailand, FIGS. 6B and A, respectively) treated with therapeutic doses of L1 (per os). Sampled were retrieved minutes to hours following L1 administration. […] When assessed under actual clinical conditions, with serum samples from Thalassemia patients (each patient is represented by a line in the graph) undergoing L1-chelation therapy in Thailand (FIG. 6A) and Israel (FIG. 6B), the methods of the present invention accurately reflected the L1-bound iron in the patient's plasma. DCI was detected in the samples assayed as described hereinabove (Example 2), and DCI values determined from the standard calibration curve (FIG. 4). […]

quenching of fluorescence by iron in the presence of gallium ([1]; listed as Fl-aTf): not affected by Gallium
Compound: 5-4,6-dichlorotriazinyl aminofluorescein (DCTF)-apo-transferrin [Fl-aTF]
quenching of fluorescence by iron in the presence of gallium ([1]; listed as FL-aTF): strongly quenched by low concentrations of iron in the presence of gallium

Compound: Cc1c(O)c(=O)ccn1C [L1]
DCI in patient plasma after L1 administration [2]: increases in DCI

Compound: Fl-TF: fluorescein attached to iron-saturated human transferrin, then rendered iron-free; similar to conventional fluoresceinated Transferrin
quenching of fluorescence by iron in the presence of gallium [1]: inhibition of Fl-TF fluorescence quenching by gallium was clearly observed
